Positions of bridges follow the written chain, without caps; N, C: chain ends. Non-standard residues stand in square brackets, D forms with d. Residues, ends and D or L forms follow the SMILES beside them.
Assays:
insulin = test: Arginine-stimulated Nembutal-anesthetized rats, blood insulin by radioimmunoassay; assay type: in vivo, rat; conditions: albino male rats, dose 100 μg/kg subcutaneous, arginine 10 min later, blood 5 min after arginine; control 74 ± 4
Method: (§1) The product of the preceding examples illustrates the selective activity of the compounds of this invention for growth hormone and glucagon suppression in the following standard procedure:
(§2) Albino male rats are administered Nembutal intraperitoneally at a dose of 50 milligrams per kilogram. Fifteen minutes later a subcutaneous injection of the test compound or physiological saline (control) is administered. Ten minutes later 0.5 milliliters of arginine (300 milligrams per milliliter, pH 7.2) is injected into the heart. Five minutes after receipt of the arginine the rats are decapitated and blood is collected into trasylol-EDTA. An appropriate aliquot is assayed for growth hormone (GH), insulin, and glucagon by radioimmunoassay.

growth hormone (GH) [1] = test: Arginine-stimulated Nembutal-anesthetized rats, blood growth hormone by radioimmunoassay; assay type: in vivo, rat; conditions: albino male rats, dose 100 μg/kg subcutaneous, arginine 10 min later, blood 5 min after arginine; control 488 ± 82; *p<0.05
Method: as §1, §2

growth hormone (GH) [2] = test: Duration of activity, growth hormone level at 2 and 4 hours; assay type: in vivo; conditions: dose 1,000 μg/kg, *p<0.01
Excerpt: The duration of activity of the product of Example 2 was as follows: […]

glucagon = test: Arginine-stimulated Nembutal-anesthetized rats, blood glucagon by radioimmunoassay; assay type: in vivo, rat; conditions: albino male rats, dose 100 μg/kg subcutaneous, arginine 10 min later, blood 5 min after arginine; control 133 ± 13; *p<0.05
Method: as §1, §2

In the case of `C[C@@H](O)[C@@H]1NC(=O)[C@H](CCCCN)NC(=O)[C@@H](Cc2c[nH]c3ccccc23)NC(=O)[C@H](Cc2c[nH]c3ccccc23)NC(=O)[C@H](Cc2ccccc2)NC(=O)[C@@H](N)CSSC[C@H](C(=O)O)NC(=O)[C@H](Cc2ccccc2)NC1=O` [Example 2, L-Cysteinyl-L-phenylalanyl-L-tryptophyl-D-tryptophyl-L-lysyl-L-threonyl-L-phenylalanyl-D-cysteine cyclic (1-8) disulfide] (H-CFW[dW]KTF[dC]-OH; disulfide 1-8), the INS (insulin) is reported as 69 ± 4 μU/ml, the GH (growth hormone (GH) [1]) is reported as 191 ± 60 ng/mL and the GH (growth hormone (GH) [2]; 2 hours, control 369 ± 60) is reported as 60 ± 6 ng/mL. It also gave a GH (growth hormone (GH) [2]; 4 hours, control 354 ± 68) of 75 ± 10 ng/mL and a GLUN (glucagon) of 60 ± 12 pg/mL.
